What was measured:
[1] = Solubility in EtOH at room temperature; type: physicochemical; settings: form (II) vs form (I)
[2] = Thermodynamic stability from DSC data (melting point, enthalpy of fusion, Burger-Ramberger rules); type: physicochemical; settings: heating rate 10° C./min, 30° C. to 140° C., all considered temperatures
Protocol: Further, differential scanning calorimetry (DSC) data reveal the difference between the two polymorphic forms of Rotigotine (FIGS. 7 and 8). […] Therefore, the two polymorphs of Rotigotine appear to be monotropically related.
Thermal behavior investigations of Rotigotine of polymorphic form (I) (batch 1608726) and of polymorphic form (II) (batch 7769396) were performed on a Mettler Toledo DSC system and on a TA instrument (Q-1000). The analyses were carried out with a heating rate of 10° C./min in pierced aluminum crucibles in a temperature range from 30° C. to 140° C.
In sum, the two polymorphic forms of Rotigotine can be differentiated by their respective melting point and their respective enthalpy of fusion. […] Therefore, the two polymorphs of Rotigotine are most probably monotropically related.

## CCCN(CCc1cccs1)[C@H]1CCc2c(O)cccc2C1 [polymorphic form (II), (−)-5,6,7,8-tetrahydro-6-[propyl-[2-(2-thienyl)ethyl]-amino]-1-naphthalenol]
[1]
  solubility in EtOH relative to polymorphic form (I): at least five times lower
[2]
  thermodynamic stability relative to the other polymorph: thermodynamically more stable than polymorphic form (I)

Source: patent publication US8592477B2, “Polymorphic form of rotigotine and process for production” (UCB Pharma GmbH, priority 2007, dated 2013)
